Converted amounts (≈) assume the structure as drawn. One block for each compound: values may come before it.
Tests used:
C. glabrata ATCC48435 = assay: Antifungal activity (GI80), growth inhibition in YPD20 medium by absorbance at 600 nm; format: cell-based; settings: 37° C., absorbance 600 nm; for IC80: Nakaseomyces glabratus, ATCC48435, minimum concentration for at least 80% cell growth inhibition, read-out: GI80 (μg/ml) C. glabrata ATCC48435; for GI80 (μg/ml) C. glabrata ATCC48435: minimum concentration for at least 80% cell growth inhibition
Description: (§1) The antifungal activity of the compounds of the invention was determined according to the method mentioned below.
(§2) An YPD20 medium (1% yeast extract, 2% peptone, 20% glucose) was used,
(§3) (2) Preparation of Cell Liquid for Inoculation:
(§4) Cells incubated overnight with Sabouraud dextrose agar at 30° C. were suspended in 0.1% Tween 80-added saline, and then added to a concentrated medium (1.33% yeast extract, 2.67% peptone, 13.33% glucose) so that the final cell concentration could be 5×10^3 cells/ml, thereby preparing a cell liquid for inoculation.
(§5) (3) Production of Chemical Dilution Plate:
(§6) A metered sample was dissolved in dimethyl sulfoxide, and a 2-fold dilution series was prepared using dimethyl sulfoxide. A chemical dilution of 2 μl each was added to a flat-bottom 96-well plate with 40% glucose (48 μl) put in each well, thereby producing a chemical dilution plate.
(§7) (4) Inoculation and Cultivation of Cell Liquid:
(§8) The cell liquid (150 μl) prepared in (2) was added to the chemical dilution plate produced in (3), followed by aerobic static cultivation at 37° C.
(§9) (5) Determination of Antifungal Activity (GI80 Value):
(§10) After cultivation for […], the plate was stirred, and its absorbance (600 nm) was measured. Based on the absorbance as the index, the minimum chemical concentration for at least 80% cell growth inhibition relative to the cell growth in the chemical-free well was computed as a GI80 value.

C. albicans ATCC MYA-573 = assay: as above; format: cell-based; settings: minimum concentration for at least 80% cell growth inhibition, 37° C., absorbance 600 nm; for IC80: Candida albicans, read-out: GI80 (μg/ml) C. albicans ATCC MYA-573
Description: as §1, §2, §3, §4, §5, §6, §7, §8, §9, §10

C. albicans ATCC90028 = assay: as above; format: cell-based; settings: 37° C., absorbance 600 nm; for IC80: Candida albicans, ATCC90028, minimum concentration for at least 80% cell growth inhibition, read-out: GI80 (μg/ml) C. albicans ATCC90028; for GI80 (μg/ml) C. albicans ATCC90028: minimum concentration for at least 80% cell growth inhibition
Description: as §1, §2, §3, §4, §5, §6, §7, §8, §9, §10

Structure (SMILES): Cc1c(Br)c(N2CC[C@H](N(C)C)C2)c2oc(C3CC3)nc2c1C#N
- melting point: 82 to 86 °C

Structure (SMILES): Cc1c(-c2ccccc2)c(N2CC[C@H](N(C)C)C2)c2oc(N3CC(CC(=O)O)C3)nc2c1C#N
- melting point: 125 to 128 °C

Structure (SMILES): Cc1c(-c2ccccc2)c(C2=CC(N(C)C)CC2)c2oc(C(C)(C)C)nc2c1C#N (stereo not drawn) [Example 3, 2-tert-Butyl-7-[3-(dimethylamino)cyclopent-1-en-1-yl]-5-methyl-6-phenyl-1,3-benzoxazole-4-carbonitrile]
- melting point: 114 to 116 °C

Structure (SMILES): Cc1c(-c2ccco2)c(N2CC[C@H](N(C)C)C2)c2oc(C3CC3)nc2c1C#N [Example 18, 2-Cyclopropyl-7-[(3S)-3-(dimethylamino)pyrrolidin-1-yl]-6-(2-furyl)-5-methyl-1,3-benzoxazole-4-carbonitrile]
- melting point: 158 to 159 °C

Structure (SMILES): CNC(=O)c1nc2c(C#N)c(C)c(-c3ccccc3)c(N3CC[C@H](N(C)C)C3)c2o1 [Example 39, 4-Cyano-7-[(3S)-3-(dimethylamino)pyrrolidin-1-yl]-N,5-dimethyl-6-phenyl-1,3-benzoxazole-2-carboxamide]
- melting point: 214 to 216 °C

Structure (SMILES): Cc1cc2c(c(N3CC[C@H](N(C)C)C3)c1-c1ccccc1)OC(C#N)(C(=O)N1CCCCC1)N2 (stereo partly drawn) [Example 43, 7-[(3S)-3-(dimethylamino)pyrrolidin-1-yl]-5-methyl-6-phenyl-2-(piperidin-1-ylcarbonyl)-1,3-benzoxazole-2-carbonitrile]
- melting point: 170 to 173 °C

Structure (SMILES): Cc1c(-c2ccccc2)c(N2CC[C@H](N(C)C)C2)c2oc(C(=O)N(C)CCc3ccccc3)nc2c1C#N [Example 46, 4-Cyano-7-[(3S)-3-(dimethylamino)pyrrolidin-1-yl]-N,5-dimethyl-6-phenyl-N-(2-phenylethyl)-1,3-benzoxazole-2-carboxamide]
- melting point: 138 to 141 °C

Structure (SMILES): CN[C@H]1CCN(c2c(-c3cccs3)c(C)c(C#N)c3nc(C(=O)N(C)C)oc23)C1 [Example 145, 4-Cyano-N,N,5-trimethyl-7-[(3S)-3-(methylamino)pyrrolidin-1-yl]-6-(thiophen-2-yl)-1,3-benzoxazole-2-carboxamide]
- IC80 (C. glabrata ATCC48435): 0.125 µg/mL (≈ 0.305 µM)
- IC80 (C. albicans ATCC MYA-573): 0.5 µg/mL (≈ 1.22 µM)
- IC80 (C. albicans ATCC90028): 0.5 µg/mL (≈ 1.22 µM)

Structure (SMILES): CN[C@H]1CCN(c2c(-c3cccc(Cl)c3)c(C)c(C#N)c3nc(C(=O)N(C)C)oc23)C1 [Example 146, 6-(3-Chlorophenyl)-4-cyano-N,N,5-trimethyl-7-[(3S)-3-(methylamino)pyrrolidin-1-yl]-1,3-benzoxazole-2-carboxamide]
- IC80 (C. glabrata ATCC48435): 0.125 µg/mL (≈ 0.285 µM)
- IC80 (C. albicans ATCC MYA-573): 0.25 µg/mL (≈ 0.571 µM)
- IC80 (C. albicans ATCC90028): 0.125 µg/mL (≈ 0.285 µM)

Structure (SMILES): CN[C@H]1CCN(c2c(-c3cccc(C)c3)c(C)c(C#N)c3nc(C(=O)N(C)C)oc23)C1 [Example 146-2, 4-Cyano-N,N,5-trimethyl-7-[(3S)-3-(methylamino)pyrrolidin-1-yl]-6-(3-methylphenyl)-1,3-benzoxazole-2-carboxamide]
- IC80 (C. glabrata ATCC48435): 0.063 µg/mL (≈ 0.151 µM)
- IC80 (C. albicans ATCC MYA-573): 0.25 µg/mL (≈ 0.599 µM)
- IC80 (C. albicans ATCC90028): 0.125 µg/mL (≈ 0.299 µM)

Structure (SMILES): Cc1c(-n2cccc2)c(N2CC[C@H](N(C)C)C2)c2oc(C3CC3)nc2c1C#N [Example 151, 2-Cyclopropyl-7-[(3S)-3-(dimethylamino)pyrrolidin-1-yl]-5-methyl-6-(pyrrol-1-yl)-1,3-benzoxazole-4-carbonitrile]
- IC80 (C. glabrata ATCC48435): 0.25 µg/mL (≈ 0.666 µM)
- IC80 (C. albicans ATCC MYA-573): 1 µg/mL (≈ 2.66 µM)
- IC80 (C. albicans ATCC90028): 2 µg/mL (≈ 5.33 µM)

Structure (SMILES): Cc1c(-c2ccccc2)c(N2CCC[C@H]2CN(C)C)c2oc(C3CC3)nc2c1C#N [Example 154, 2-Cyclopropyl-7-{(2S)-2-[(dimethylamino)methyl]pyrrolidin-1-yl}-5-methyl-6-phenyl-1,3-benzoxazole-4-carbonitrile]
- IC80 (C. glabrata ATCC48435): 0.25 µg/mL (≈ 0.624 µM)
- IC80 (C. albicans ATCC MYA-573): 1 µg/mL (≈ 2.5 µM)
- IC80 (C. albicans ATCC90028): 1 µg/mL (≈ 2.5 µM)

Structure (SMILES): CNC[C@H]1CCN1c1c(-c2ccccc2)c(C)c(C#N)c2nc(C(=O)N(C)C)oc12 [Example 155]
- GI80 (μg/ml) C. glabrata ATCC48435 (C. glabrata ATCC48435): 0.125 µg/mL (≈ 0.31 µM)
- GI80 (μg/ml) C. albicans ATCC MYA-573 (C. albicans ATCC MYA-573): 2 µg/mL (≈ 4.96 µM)
- GI80 (μg/ml) C. albicans ATCC90028 (C. albicans ATCC90028): 0.5 µg/mL (≈ 1.24 µM)

Structure (SMILES): CNC1=CC(c2c(-c3ccccc3)c(C)c(C#N)c3nc(C(=O)N(C)C)oc23)CC1 (stereo not drawn) [Example 156-1, 4-Cyano-N,N,5-trimethyl-7-[3-(methylamino)cyclopent-2-enyl]-6-phenyl-1,3-benzoxazole-2-carboxamide]
- IC80 (C. glabrata ATCC48435): 0.063 µg/mL (≈ 0.157 µM)
- IC80 (C. albicans ATCC MYA-573): 0.25 µg/mL (≈ 0.624 µM)
- IC80 (C. albicans ATCC90028): 0.25 µg/mL (≈ 0.624 µM)

Structure (SMILES): CN[C@H]1CCN(c2c(-c3csc(C)n3)c(C)c(C#N)c3nc(C(=O)N(C)C)oc23)C1 [Example 158, 4-Cyano-N,N,5-trimethyl-7-[(3S)-3-(methylamino)pyrrolidin-1-yl]-6-(2-methyl-1,3-thiazol-4-yl)-1,3-benzoxazole-2-carboxamide]
- GI80 (μg/ml) C. glabrata ATCC48435 (C. glabrata ATCC48435): 0.25 µg/mL (≈ 0.589 µM)
- GI80 (μg/ml) C. albicans ATCC MYA-573 (C. albicans ATCC MYA-573): 2 µg/mL (≈ 4.71 µM)
- GI80 (μg/ml) C. albicans ATCC90028 (C. albicans ATCC90028): 0.5 µg/mL (≈ 1.18 µM)

Structure (SMILES): OC(Cn1cncn1)(Cn1cncn1)c1ccc(F)cc1F [FCZ, Fluconazole, reference compound]
- IC80 (C. glabrata ATCC48435): > 4 µg/mL
- IC80 (C. albicans ATCC MYA-573): > 4 µg/mL
- IC80 (C. albicans ATCC90028): 0.25 µg/mL (≈ 0.816 µM)

Structure (SMILES): CCC(C)n1ncn(-c2ccc(N3CCN(c4ccc(OCC5COC(Cn6cncn6)(c6ccc(Cl)cc6Cl)O5)cc4)CC3)cc2)c1=O (stereo not drawn) [ITZ, Itraconazole, reference compound]
- GI80 (μg/ml) C. glabrata ATCC48435 (C. glabrata ATCC48435): 0.25 µg/mL (≈ 0.354 µM)
- GI80 (μg/ml) C. albicans ATCC MYA-573 (C. albicans ATCC MYA-573): 0.125 µg/mL (≈ 0.177 µM)
- GI80 (μg/ml) C. albicans ATCC90028 (C. albicans ATCC90028): <0.016 µg/mL

Other lines, results leading:

- melting point: 168 to 170 °C (dec.)
Structure (SMILES): Cc1c(-c2ccccc2)c(N2CC[C@H](N(C)C)C2)c2oc(C(C)C)nc2c1C#N.Cl

- melting point: 144 to 146 °C
Structure (SMILES): Cc1c(-c2ccccc2)c(C2=CC(N(C)C)CC2)c2oc(C3CC3)nc2c1C#N (stereo not drawn) [Example 8, 2-Cyclopropyl-7-(3-dimethylaminocyclopent-1-en-1-yl)-5-methyl-6-phenyl-1,3-benzoxazole-4-carbonitrile]

- melting point: 211 to 212 °C
Structure (SMILES): Cc1c(-c2ccccc2)c(N2CC(N(C)C)C2)c2oc(C(C)(C)C)nc2c1C#N [Example 15, 2-Tert-butyl-5-methyl-7-(3-dimethylaminoazetidin-1-yl)-6-phenyl-1,3-benzoxazole-4-carbonitrile]

- melting point: 150 to 151 °C
Structure (SMILES): Cc1c(-c2ccccn2)c(N2CC[C@H](N(C)C)C2)c2oc(C3CC3)nc2c1C#N [Example 20, 2-Cyclopropyl-7-[(3S)-3-(dimethylamino)pyrrolidin-1-yl]-5-methyl-6-(pyridin-2-yl)-1,3-benzoxazole-4-carbonitrile]

- melting point: 157 to 159 °C
Structure (SMILES): Cc1c(-c2cnccn2)c(N2CC[C@H](N(C)C)C2)c2oc(C3CC3)nc2c1C#N [Example 21, 2-Cyclopropyl-7-[(3S)-3-(dimethylamino)pyrrolidin-1-yl]-5-methyl-6-(pyrazin-2-yl)-1,3-benzoxazole-4-carbonitrile]

- melting point: 142 °C
Structure (SMILES): CC(=O)c1c(C)c(C#N)c2nc(C3CC3)oc2c1N1CC[C@H](N(C)C)C1 [Example 26, 6-Acetyl-2-cyclopropyl-7-[(3S)-3-(dimethylamino)pyrrolidin-1-yl]-5-methyl-1,3-benzoxazole-4-carbonitrile]

- melting point: 67 to 70 °C
Structure (SMILES): Cc1c(-c2ccccc2)c(N2CC[C@@H](N(C)C)C2)c2oc(C(=O)N(C)C)nc2c1C#N [Example 40-2, 4-Cyano-N,N,5-trimethyl-7-[(3R)-3-(dimethylamino)pyrrolidin-1-yl]-6-phenyl-1,3-benzoxazole-2-carboxamide]

- melting point: 145 to 148 °C
Structure (SMILES): CN[C@@H]1CCN(c2c(-c3ccccc3)c(C)c(C#N)c3nc(C(=O)N(C)C)oc23)C1 [Example 40-3, 4-Cyano-N,N,5-trimethyl-7-[(3R)-3-(methylamino)pyrrolidin-1-yl]-6-phenyl-1,3-benzoxazole-2-carboxamide]
